pEC50: −log10 of the molar value.

For this assay, the system named is S. cerevisiae RPL19A-GFP strain, flow cytometry GFP, 3 h. The assay can be described thus: TOR pathway reporter RPL19A-GFP modulators – cell-based, cherry pick 3, SAR, flow cytometry GFP, multiplex, dose response (AID 488814).
As usually defined, the pEC50 is the EC50 on a negative log10 scale, so that one unit is a factor of ten. Consider `CC1=NNC(=O)/C1=C\c1cn(-c2ccccc2)nc1-c1ccc(F)cc1`, for which the negative-log EC50 (pEC50) was 4.82.

Take `Cc1ccc(NN2C(=O)C=C(c3ccccc3)C2=O)cc1`: the pEC50 was 6.06.

`Cc1ccc2c(Cl)cc(Cl)c(O)c2n1`: the pEC50 was 4.83.
